Assay results reported in article PMC6009976, “Pharmacophore-based design and discovery of (−)-meptazinol carbamates as dual modulators of cholinesterase and amyloidogenesis” (Journal of Enzyme Inhibition and Medicinal Chemistry, 2017).
Where two headings read alike, the source gives them in different places. Marks after values point to notes of the source that are not given here.

Legend:
[1] = target: T1, AChE (mice brain homogenate) (Mus musculus, UniProt P21836); conditions: cited from earlier work
T1 construct: a solution of AChE (1:9 w/v homogenate in 0.1 M phosphate buffer (PB), pH 7.4); from tissue; host or cells: mouse brain homogenate
T1 sequence (P21836 32-614): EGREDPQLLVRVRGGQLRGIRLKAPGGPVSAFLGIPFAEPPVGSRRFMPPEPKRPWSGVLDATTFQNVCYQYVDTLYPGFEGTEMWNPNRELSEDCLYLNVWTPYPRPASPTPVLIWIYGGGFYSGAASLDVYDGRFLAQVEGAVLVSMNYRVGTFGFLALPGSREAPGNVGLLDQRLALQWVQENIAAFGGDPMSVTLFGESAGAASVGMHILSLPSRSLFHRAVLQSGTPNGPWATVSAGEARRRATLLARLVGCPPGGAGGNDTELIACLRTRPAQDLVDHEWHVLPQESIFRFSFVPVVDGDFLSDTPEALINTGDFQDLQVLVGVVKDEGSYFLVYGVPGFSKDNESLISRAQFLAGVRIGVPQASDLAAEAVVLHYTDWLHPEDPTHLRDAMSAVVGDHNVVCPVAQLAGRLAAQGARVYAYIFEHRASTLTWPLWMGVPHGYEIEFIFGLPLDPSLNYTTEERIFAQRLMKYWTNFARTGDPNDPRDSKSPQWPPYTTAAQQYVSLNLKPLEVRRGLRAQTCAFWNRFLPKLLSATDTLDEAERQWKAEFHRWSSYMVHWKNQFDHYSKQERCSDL

[2] = target: T1, AChE (mice brain homogenate); test: In vitro AChE inhibition assay (Ellman's method); type: biochemical; conditions: for Selectivity for AChE (IC50 for BChE divided by IC50 for AChE): mice serum BChE, (−)-meptazinol from values of ref 17
Experimental: (§1) Inhibitory activities of the compounds toward AChE and BChE were evaluated by Ellman’s method, employing mice brain homogenate as source of AChE and mice serum as source of BChE. […] After incubation for 20 min at 37 °C, Ellman’s reagent (300 µL, 5,5′-dithiobis(2-nitrobenzoic acid) (DTNB), 0.5 mM in 0.1 M PB, pH 7.4) and acetylthiocholine iodide (ATCh) (300 µL of 0.5 mM water solution) were added successively, and percent inhibition was determined by absorbance changes at 412 nm detected by UV spectrophotometry compared with control. BChE inhibition assay was similarly carried out using butyrylthiocholine iodide (BTCh) (0.5 mM) as the substrate and BChE (1:19 v/v serum in 0.1 M PB, pH 7.4) as the enzyme source.

[3] = target: T2, rHuAChE immobilized on EDA CIM disk (Homo sapiens, UniProt P22303); test: Carbamoylation and decarbamoylation rate constants on AChE immobilized disk; type: biochemical; conditions: for Kd: inhibitor 50 and 100 nM; for Carbamoylation half-time: inhibitor 50 nM
T2 sequence (P22303 32-614): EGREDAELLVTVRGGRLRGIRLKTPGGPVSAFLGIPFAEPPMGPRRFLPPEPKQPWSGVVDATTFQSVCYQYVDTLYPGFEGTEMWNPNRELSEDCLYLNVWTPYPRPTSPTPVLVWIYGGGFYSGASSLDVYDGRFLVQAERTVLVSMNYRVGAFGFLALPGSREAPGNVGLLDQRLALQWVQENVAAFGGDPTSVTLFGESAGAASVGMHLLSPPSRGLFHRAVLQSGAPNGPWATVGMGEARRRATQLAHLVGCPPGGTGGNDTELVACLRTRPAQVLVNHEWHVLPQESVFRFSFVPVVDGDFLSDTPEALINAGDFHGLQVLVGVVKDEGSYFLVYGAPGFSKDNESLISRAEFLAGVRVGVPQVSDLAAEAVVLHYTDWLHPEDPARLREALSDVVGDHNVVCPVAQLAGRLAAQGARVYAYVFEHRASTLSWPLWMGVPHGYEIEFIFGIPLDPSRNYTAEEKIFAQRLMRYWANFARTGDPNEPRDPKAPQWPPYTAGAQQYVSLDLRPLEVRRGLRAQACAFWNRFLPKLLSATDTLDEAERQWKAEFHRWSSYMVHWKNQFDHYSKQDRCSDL
Experimental: The EDA CIM disk was first connected to a syringe pump and equilibrated with 10 column volumes (CV) of triple-distilled water and 10 CVs of 0.5 M Na-PB (pH 8.0). The flow rate was set at 0.5 mL/min. Then, the disk was activated by a 1% glutaraldehyde solution in PB (0.1 M, pH 7.4) (in the dark, 12 h, 4 °C). The activated disk was washed with 10 CVs of PB. 2 mL of rHuAChE in PB (10 U/mL) was then added into the column and left to react overnight (4 °C). The Schiff bases were reduced by 5 mL of 0.1 M sodium triacetoxyborohydride (STAB) in PB (2 h at room temperature) and 5 mL of 0.2 M monoethanolamine in PB (3 h at room temperature)[39]. The column was connected to the liquid chromatography system and equilibrated with a mobile phase consisting of 0.5 M NaCl and 10^−4 M DTNB in PB (buffer A) for 10 min. Reference enzyme activity was assessed by injecting 20 µL of saturating substrate (ATCh, 50 mM). The peak area was calculated and noted as A0. Then, the mobile phase was switched to the one containing selected concentrations of inhibitor (carbamoylation phase). Aliquots of 20 µL of saturating substrate were injected every 10–20 min and the time-dependent decreasing of peak area (Ai) was monitored down to a plateau. Once a constant plateau was reached, mobile phase was switched to buffer A again (decarbamoylation phase). Aliquots of substrate were kept injecting into the system to monitor the recovery of AChE activity over time. […] The experiment was carried out for two different concentrations of 42 and 43 (50 and 100 nM). The process of AChE carbamoylation and decarbamoylation is generally described as Scheme 1[40–42].
Calculation of ki and k3 was performed by applying Perola’s mathematical equation[43]. The affinity of the inhibitors toward the enzyme (KD) was calculated following Equation (1). (1) […]

rHuAChE = rHuAChE (Homo sapiens, UniProt P22303); test: Determination of the enzyme kinetic parameters Km and Vmax; type: biochemical; conditions: for Type of AChE inhibition: Lineweaver–Burk plots, decreased Vmax, unvaried Km
rHuAChE, sequence (P22303 32-614): as above
Experimental: 10 µL inhibitors of different concentrations and 50 µL rHuAChE enzyme solution of 0.5 U/mL were mixed and incubated for 20 min, then 75 µL of DTNB solution and 100 µL of ATCh solution (concentration ranging from 0.057 mM to 0.2 mM) were added to the mixture. Enzyme activity was determined right after ATCh was added by modified Ellman’s spectrophotometrical method. The Km and Vmax values for AChE inhibition were calculated by regression analysis of Lineweaver–Burk plots (1/velocity versus 1/[substrate]).

[4] = test system: APP in SH-SY5Y-APP695 cells; test: Quantification of APP by high content screening; type: cell-based, human; conditions: 16 h; for Reduction of intracellular APP level: 50 µM
Experimental: (§2) Human neuroblastoma SH-SY5Y cells transfected with wild-type APP695 gene (SH-SY5Y-APP695)[44] of 5 × 10^4/well (SH-SY5Y-APP695 kindly provided by Prof. Shengdi Chen, Ruijin Hospital, Shanghai Jiao Tong University School of Medicine) were plated in 200 µL culture medium (DMEM/F12, 10% Fetal Bovine Serum, 300 µg/mL G418, 100 U/mL penicillin + 100 µg/mL streptomycin) and incubated for 48 h at 37 °C in 5% CO2. Compounds 42 and 43 dissolved in culture medium were applied to the cells and incubated at 37 °C in 5% CO2 for 16 h. The cells were fixed and permeabilized. Mouse anti-APP monoclonal antibody N-terminus (MAB348, CHEMICON) and Goat anti-Mouse IgG conjugated to Alexa Fluor 555 were used as primary antibody and secondary antibody to detect APP while Hoechst Dye was used to stain nucleus simultaneously. KineticScan HCS System was employed to automatically find, focus, image, and analyze the cells on double-fluorescence channel guided by Target Activation Bioapplication. Fluorescence Unit of APP versus that of nucleus was used to evaluate the expression of APP, in order to balance the background.

Kunming mice = test: in vivo; conditions: mice; as doses escalate
Experimental: (§3) Acute toxicity was evaluated in mice of both sexes (20–25 g Kunming mice from experimental animal center of Shanghai Jiao Tong University School of Medicine). All animals were housed in plastic cages with food and water ad libitum and maintained on a 12/12 h light/dark cycle at 22 ± 1 °C. […] Compounds 42 and 43 were dissolved in a 1:10 propylene glycol-normal saline mixture at 0.1 mol/L and then diluted to the final stepwise concentrations with normal saline. Each concentration of the compound was orally or intraperitoneally administered to a group of 10 animals. After two weeks of observation, the lethal rate for each group was measured. A 95% confidence interval for 42 or 43 after oral or intraperitoneal administration was calculated by Bliss method.

in vivo = conditions: both, Kunming, mouse, in vivo
Experimental: as §3

[5] = test system: Aβ40/Aβ42 in SH-SY5Y-APP695 cells; test: Quantification of Aβ40/Aβ42 by ELISA in cell culture medium; type: cell-based, human; conditions: for Reduction of Aβ42 level / Level of Aβ40: 50 µM; for Level of Aβ40: data not shown
Experimental: as §2
The cell culture medium was collected and added with phenylmethylsulfonyl fluoride (PMSF) to the final concentration of 0.1%. The concentration of Aβ40/Aβ42 in the medium was measured by Human/Rat βAmyloid (40/42) ELISA Kit Wako and calculated according to the standard line.

BChE (mice serum) = target: T3, BChE (mice serum) (Mus musculus, UniProt Q03311); test: In vitro BChE inhibition assay (Ellman's method); type: biochemical; conditions: read-out: IC50 ± SEM BChE
T3 construct: BChE (1:19 v/v serum in 0.1 M PB, pH 7.4) as the enzyme source; from tissue; host or cells: mouse serum
T3 sequence (Q03311 30-603): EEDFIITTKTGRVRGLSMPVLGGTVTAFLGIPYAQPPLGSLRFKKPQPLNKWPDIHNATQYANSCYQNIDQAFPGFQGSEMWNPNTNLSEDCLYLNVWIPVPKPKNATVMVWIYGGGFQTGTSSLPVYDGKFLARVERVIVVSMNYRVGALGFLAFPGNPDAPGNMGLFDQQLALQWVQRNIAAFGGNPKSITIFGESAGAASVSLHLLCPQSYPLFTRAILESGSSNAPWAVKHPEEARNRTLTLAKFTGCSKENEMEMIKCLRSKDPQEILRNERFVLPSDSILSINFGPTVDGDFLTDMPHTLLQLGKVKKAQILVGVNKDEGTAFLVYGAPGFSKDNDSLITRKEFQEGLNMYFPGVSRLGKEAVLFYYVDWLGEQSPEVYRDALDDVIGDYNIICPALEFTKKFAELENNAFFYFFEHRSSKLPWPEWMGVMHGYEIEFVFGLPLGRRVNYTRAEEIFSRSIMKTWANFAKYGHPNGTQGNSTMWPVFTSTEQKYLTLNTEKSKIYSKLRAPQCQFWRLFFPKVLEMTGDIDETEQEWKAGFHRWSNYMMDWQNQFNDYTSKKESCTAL
Experimental: as §1

[6] = test system: AChE from human erythrocytes; conditions: human erythrocyte AChE; read-out: IC50 ± SEM AChE; cited from earlier work
human serum BChE = conditions: read-out: IC50 ± SEM BChE; cited from earlier work
[7] = cited from earlier work
[8] = test system: APP in SH-SY5Y-APP695 cells; conditions: 50 µM; cited from earlier work
[9] = test system: Aβ40/Aβ42 in SH-SY5Y-APP695 cells; conditions: 50 µM; cited from earlier work
[10] = target: T2, rHuAChE immobilized on EDA CIM disk; conditions: cited from earlier work
mice brain AChE = conditions: training set, read-out: Experimental IC50; cited from earlier work
[11] = dissociation (decarbamoylation) constant, Mean ± SD, n = 6
[12] = inhibit (carbamoylation) constant, Mean ± SD, n = 6
[13] = reference compound to verify the disk

## CC[C@@]1(c2cccc(O)c2)CCCCN(C)C1 [(−)-Meptazinol]
[1]
  IC50: 41000 nM
[2]; mice brain AChE
  Selectivity for AChE (IC50 for BChE divided by IC50 for AChE): 0.37

## CC[C@@]1(c2cccc(OC(=O)N(C)C)c2)CCCCN(C)C1 [Compound 42, (S)-3-(3-ethyl-1-methylazepan-3-yl)phenyl dimethylcarbamate]
[3]; Mean ± SD, n = 6
  Kd: 30.2 nM
[3]; [11]
  k3: (1.35 ± 0.31) × 10^−2 min^−1
[3]; [12]
  ki: (4.47 ± 1.21) × 10^5 M^−1min^−1
[3]
  Carbamoylation half-time: 23.5 min
[2]
  IC50: 6.93 ± 2.45 nM
[2]; mice brain AChE
  AChE inhibitory potency relative to rivastigmine (times more potent): about 790
  Fold increase in inhibition of mice brain AChE compared with (−)-meptazinol: 5900
  Selectivity for AChE (IC50 for BChE divided by IC50 for AChE): 0.46
rHuAChE
  Type of AChE inhibition: uncompetitive inhibition
rHuAChE; inhibitor 100 nM
  Decrease of Vmax: 18%
  Vmax-app: 28.73 µM/min
rHuAChE; inhibitor 250 nM
  Decrease of Vmax: 29%
  Vmax-app: 24.70 µM/min
[4]
  Reduction of intracellular APP level: 23.5%
Kunming mice
  Peripheral cholinergic side effects observed: salivation, twitch, and incontinence
In vivo; ip
  LD50: 1.4 mg/kg
In vivo; po
  LD50: 12 mg/kg
[5]; 16 h
  Reduction of Aβ42 level: 34.0%
[5]
  Level of Aβ40: unchanged
BChE (mice serum)
  IC50: 3.17 ± 1.34 nM

## CN1CC[C@@]2(C)c3cc(OC(=O)Nc4ccccc4)ccc3N(C)[C@@H]12 [Compound 5, Phenserine]
[6]
  IC50: 24 ± 6 nM
Human serum BChE
  IC50: 1300 ± 85 nM
[7]; i.p.
  LD50: 25 (i.p.)^i mg/kg
[8]
  Decrease of APP level: 40%
[9]
  Decrease of total Aβ: 31%

## CC[C@@]1(c2cccc(OC(=O)Nc3ccccc3)c2)CCCCN(C)C1 [Compound 43, (S)-3-(3-ethyl-1-methylazepan-3-yl)phenyl phenylcarbamate]
[3]; Mean ± SD, n = 6
  Kd: 108 nM
[3]; [11]
  k3: (2.18 ± 0.12) × 10^−2 min^−1
[3]; [12]
  ki: (2.12 ± 0.46) × 10^5 M^−1min^−1
[3]
  Carbamoylation half-time: 20.3 min
[2]
  IC50: 31.6 ± 3.5 nM
[2]; against phenserine value of ref 22
  Times less potent than phenserine in AChE inhibition: 1.3
[2]; mice brain AChE
  Fold increase in inhibition of mice brain AChE compared with (−)-meptazinol: 1300
  Selectivity for AChE (IC50 for BChE divided by IC50 for AChE): 2.1
rHuAChE
  Type of AChE inhibition: uncompetitive inhibition
rHuAChE; inhibitor 25 nM
  Decrease of Vmax: 10%
  Vmax-app: 17.84 µM/min
rHuAChE; inhibitor 50 nM
  Decrease of Vmax: 25%
  Vmax-app: 14.94 µM/min
[4]; 5 µM
  Decrease of APP level: 20.0%
[4]
  Reduction of intracellular APP level: 26.9%
Kunming mice
  Peripheral cholinergic side effects observed: salivation, twitch, and incontinence
In vivo; ip
  LD50: 45 mg/kg
In vivo; po
  LD50: 73 mg/kg
[5]; 5 µM, 16 h
  Decrease of Aβ42 level: 30.5%
[5]; 16 h
  Reduction of Aβ42 level: 51.9%
[5]
  Level of Aβ40: unchanged
BChE (mice serum)
  IC50: 67.1 ± 23.7 nM

## CNC(=O)Oc1ccc2c(c1)[C@]1(C)CCN(C)[C@@H]1N2C [Compound 1, (3aS)-(−)-physostigmine]
[3]; [13]
  k3: (1.94 ± 0.36) × 10^−2 min^−1
  ki: (4.78 ± 1.13) × 10^5 M^−1 min^−1
[7]; p.o.
  LD50: 4.5 (p.o.)^h mg/kg
[10]
  Carbamoylation half-time: 3.9 min
